Here are results for 2 compounds from patent publication US11116776B2, “Intravitreal drug delivery systems for the treatment of ocular conditions” (Aerie Pharmaceuticals, Inc., priority 2015, dated 2021).

Molecules are shown by their SMILES.

For series [1] the following is noted: monkey (Chang-Lin 2011); cited from earlier work.
Series [2] concerns VEGF-induced vascular leakage. As to conditions: rabbit model (Edelman 2005); cited from earlier work.
Series [3] in a line: ENVRES-PRE-002 ocular pharmacokinetics after intravitreal injection. It counts as in vivo, New Zealand White rabbits. The following applies: rabbit; for Cmax: male, New Zealand White, topical or ocular. As to the method:
New Zealand White rabbits, 2 males/group/terminal time point, were administered a single bilateral intravitreal injection of either ENV1105 or OZURDEX and were followed for up 1, 2, 3, and/or 5 months. Animals were examined via slit lamp ophthalmoscopy and indirect ophthalmoscopy.
Ocular tissues, including aqueous humor, vitreous humor, and retina, were processed and analyzed for dexamethasone or FA by two of three methods. Dexamethasone present in ocular tissue samples was quantified by ELISA and HPLC. FA present in ocular tissues was quantified by HPLC and mass spectrometry. Prior to analysis, implants or particles were separated from vitreous humor samples via manual removal or centrifugation. Vitreous humor and aqueous humor tissue samples were analyzed as received or diluted with ACN for LC MS/MS or PBS for ELISA.
Animals were followed for up to 3 months, with ocular matrices (retina/choroid, vitreous humor and aqueous humor) collected to determine ocular pharmacokinetics at Months 2 and 3. Ocular exams were conducted on Days 2, 3, 6, 10, weekly through Day 28, and then biweekly through Month 3 to determine tolerability. A summary of the study designed is provided below in Table 10.

The term Cmax denotes the highest concentration seen after dosing. For the compound `C[C@@H]1C[C@H]2[C@@H]3CCC4=CC(=O)C=C[C@]4(C)[C@@]3(F)[C@@H](O)C[C@]2(C)[C@@]1(O)C(=O)CO` [Dexamethasone, (8S,9R,10S,11S,13S,14S,16R,17R)-9-Fluoro-11,17-dihydroxy-17-(2-hydroxyacetyl)-10,13,16-trimethyl-6,7,8,9,10,11,12,13,14,15,16,17-dodecahydro-3H-cyclopenta[a]phenanthren-3-one], in series [1], the “time dexamethasone was detected in the retina and vitreous humor” value is given as 6 months. The “efficacy in VEGF-induced vascular leakage” value in series [2] is “effective”. For the same compound, the Cmax in series [3] (0.27 mg, aqueous humor, Group 4 (ENV-1R-0119-7-5, 6 implants, 270 μg/eye)) is 5.9 ng/mL; in series [3] (0.27 mg, retina/choroid, Group 4 (ENV-1R-0119-7-5, 6 implants, 270 μg/eye)) it was 28100 ng/g; in series [3] (0.27 mg, vitreous humor, Group 4 (ENV-1R-0119-7-5, 6 implants, 270 μg/eye)), 3080 ng/mL.
Take `CC1(C)O[C@@H]2C[C@H]3[C@@H]4C[C@H](F)C5=CC(=O)C=C[C@]5(C)[C@@]4(F)[C@@H](O)C[C@]3(C)[C@]2(C(=O)CO)O1` [fluocinolone acetonide, (1S,2S,4R,8S,9S,11S,12R,13S,19S)-12,19-difluoro-11-hydroxy-8-(2-hydroxyacetyl)-6,6,9,13-tetramethyl-5,7-dioxapentacyclo[10.8.0.0^2,9.0^4.8.0 ^13,18]icosa-14,17-dien-16-one]: in series [3] (Group 5 (ENV-1R-0119-33-7), retina/choroid and vitreous humor), the “day on which concentration peaked” value was 84 days. In addition, the Cmax in series [3] (0.0407 mg, retina/choroid, Group 5 (ENV-1R-0119-33-7, 40.7 μg/eye)) was found to be 3950 ng/g; in series [3] (0.0407 mg, vitreous humor, Group 5 (ENV-1R-0119-33-7, 40.7 μg/eye)), 298 ng/g.
